Legend:
[1] = test system: chromatin-bound H1.0K180me2 and γH2A.X; experiment: Western blot of chromatin-bound H1.0K180me2 and γH2A.X upon bleomycin with PARP-1 inhibition; format: cell-based, human; conditions: 1 μM for 24 hours, bleomycin treatment
Excerpt: (§1) Material for western blot analysis (cultured cells or tissue) was lysed in ice-cold RIPA lysis buffer (Thermo Scientific 89900) and sonicated using a Covaris S2 sonicator (10% duty cycle, Intensity 5, Bursts per minute 100, 120 seconds). Total protein concentration in each sample was quantified using Quick Start Bradford 1× Dye Reagent (BioRad, 5000205) following manufacturer's protocol. Samples were then mixed with NUPAGE LDS sample loading buffer (ThermoFisher, NP0007) and NUPAGE sample reducing buffer (ThermoFisher, NP0004), and heat denatured at 70° C. for 10 minutes. Proteins were separated on 4-12% precast polyacrylamide gels (ThermoFisher, NP0321) by electrophoresis and transferred to 0.45 μm nitrocellulose membrane. […] Proteins were detected with HRP secondary antibodies listed above for 1 hour at RT followed by ECL Western Blotting Substrate (ThermoFisher, 32106) using manufacturer's instructions. […]
(§2) To further assess if H1.0K180 methylation is dependent on the DNA damage repair pathway protein PARP-1 activity, western blot analysis was performed according to methods described in Example 1, to examine chromatin-bound H1.0K180me2 and γH2A.X upon treatment with bleomycin. […] Thus it was determined that H1.0K180 methylation is independent of DNA damage repair pathway protein PARP-1 activity

[2] = target: T1, PARP-1 (Homo sapiens, UniProt P09874); experiment: Western blot of PARP-1 inhibitor activity in whole cell lysates (poly-(ADP)-ribose levels); format: cell-based; conditions: 1 μM for 24 hours
T1 construct: endogenous in cells; host or cells: hADSCs (inferred)
T1 sequence (P09874 whole entry): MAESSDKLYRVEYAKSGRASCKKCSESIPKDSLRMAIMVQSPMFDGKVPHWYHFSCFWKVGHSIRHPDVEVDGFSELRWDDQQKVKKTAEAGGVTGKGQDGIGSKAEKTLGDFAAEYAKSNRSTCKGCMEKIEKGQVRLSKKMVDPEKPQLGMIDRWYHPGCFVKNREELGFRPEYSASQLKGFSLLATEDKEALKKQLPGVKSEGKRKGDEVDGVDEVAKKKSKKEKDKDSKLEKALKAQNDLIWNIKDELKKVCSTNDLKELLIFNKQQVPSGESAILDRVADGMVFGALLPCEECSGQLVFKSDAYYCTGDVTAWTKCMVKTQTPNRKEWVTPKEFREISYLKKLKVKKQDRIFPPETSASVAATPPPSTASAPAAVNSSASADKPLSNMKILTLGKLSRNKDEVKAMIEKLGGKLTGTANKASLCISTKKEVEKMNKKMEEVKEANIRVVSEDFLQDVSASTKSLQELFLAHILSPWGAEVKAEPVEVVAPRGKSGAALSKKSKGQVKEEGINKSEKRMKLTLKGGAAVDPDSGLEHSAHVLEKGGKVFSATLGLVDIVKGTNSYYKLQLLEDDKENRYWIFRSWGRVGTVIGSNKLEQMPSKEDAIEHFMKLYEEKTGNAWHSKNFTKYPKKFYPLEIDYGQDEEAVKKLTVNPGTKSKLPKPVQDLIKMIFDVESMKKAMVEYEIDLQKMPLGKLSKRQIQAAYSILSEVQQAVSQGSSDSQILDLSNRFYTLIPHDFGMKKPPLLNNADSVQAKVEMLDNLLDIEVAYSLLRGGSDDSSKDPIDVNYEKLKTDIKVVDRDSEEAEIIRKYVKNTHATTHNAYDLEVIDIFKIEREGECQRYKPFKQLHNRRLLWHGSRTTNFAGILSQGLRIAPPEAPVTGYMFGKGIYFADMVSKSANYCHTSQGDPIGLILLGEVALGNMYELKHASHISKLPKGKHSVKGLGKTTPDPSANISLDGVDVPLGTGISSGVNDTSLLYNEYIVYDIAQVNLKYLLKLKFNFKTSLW
Excerpt: as §1, §2

[3] = test system: H1.0K180me2; experiment: Western blot for H1.0K180me2 in SR hADSCs treated with bleomycin after rapamycin or everolimus pretreatment; format: cell-based, human; conditions: 500 nM, 24 hours pretreatment, then bleomycin 2 hours
Excerpt: as §1
To test if rapamycin derivatives may block H1.0K180me2 appearance upon DNA damage, SR hADSCs were treated with bleomycin for 2 hours with or without pretreatment with rapamycin or everolimus (a derivative of rapamycin) for 24 hours. Cells were then lysed and analyzed be western blot for H1.0K180me2, γH2A.X and β-Actin, according to methods described in Example 1.

| Compound | accumulation of chromatin-bound H1.0K180me2 [1] | accumulation of chromatin-bound γH2A.X [1] | poly-(ADP)-ribose (PAR) levels increased upon bleomycin treatment [2] | appearance of H1.0K180me2 upon bleomycin treatment [3] |
| --- | --- | --- | --- | --- |
| CN(C)Cc1ccc(-c2nc3cccc4c3n2CCNC4=O)cc1 [AG14361] | increased accumulation | increased accumulation | abolished | – |
| CO[C@H]1C[C@@H]2CC[C@@H](C)[C@@](O)(O2)C(=O)C(=O)N2CCCC[C@H]2C(=O)O[C@H]([C@H](C)C[C@@H]2CC[C@@H](OCCO)[C@H](OC)C2)CC(=O)[C@H](C)/C=C(\C)[C@@H](O)[C@@H](OC)C(=O)[C@H](C)C[C@H](C)/C=C/C=C/C=C/1C [everolimus, Everolimus] | – | – | – | reduced the appearance of H1.0K180me2 |

Reference: US20240255509A1, “COMPOSITIONS AND METHODS RELATED TO K180 DIMETHYLATED H1.0 PROTEIN” (Aelan Cell Technologies, Inc., priority 2016, published 2024)
